Results as given in patent US10179790B2 (THOMAS HELLEDAYS STIFTELSE FOR MEDICINSK FORSKNING, priority 2014, dated 2019).

Columns and labels:
cancer cell = assay: Cell viability assay (resazurin); type: cell-based; conditions: 72 h; 3 days with compound, resazurin fluorescence; cell line not named
How it was run: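 Cells in DMEM GlutaMAX or line-appropriate medium are exposed to compound for 3 days at 37 °C, 5% CO2. Viability is read as resazurin fluorescence (Ex544/Em590) after 2 h incubation. In the 384-well format, cells are seeded onto 11 pre-dispensed concentrations (final DMSO <1%) and read after 3 h resazurin.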

MTH1 = MTH1 (Homo sapiens, UniProt P36639); assay: MTH1 enzymatic assay and IC50 value determination (malachite green, 96- and 384-well format); type: biochemical; conditions: hydrolysis of dGTP (100 μM), MTH1 6 nM, pyrophosphatase-coupled malachite green, 15 minutes at 22° C.
How it was run: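 MTH1 (6 nM) hydrolysed dGTP (100 μM) for 15 min at 22 °C in Tris-acetate buffer with Mg2+, DTT, Tween 20 and excess pyrophosphatase, 1% DMSO. Pi detected with malachite green at 630 nm. IC50 from nonlinear 4-parameter fit of 11–12-point dilution series.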

| SMILES | IC50 (cancer cell) | IC50 (MTH1) |
| --- | --- | --- |
| Cc1cccc(-c2cc(NCCNc3ccc(C(N)=O)cc3)nc(N)n2)c1C [Example 30, 4-[(2-{[2-amino-6-(2,3-dimethylphenyl)pyrimidin-4-yl]amino}ethyl)amino]benzamide] | < 500 nM | < 200 nM |
| Cc1c(Cl)cccc1-c1cc(NCCNc2ccc3c(c2)NC(=O)C(C)(C)O3)nc(N)n1 [Example 56, 6-[(2-{[2-amino-6-(3-chloro-2-methylphenyl)pyrimidin-4-yl]amino}ethyl)amino]-2,2-dimethyl-3,4-dihydro-2H-1,4-benzoxazin-3-one] | < 500 nM | < 200 nM |
| Cc1c(Cl)cccc1-c1cc(NCCc2cccc(NC(=O)NC(C)C)c2)nc(N)n1 [Example 82, 1-[3-(2-{[2-amino-6-(3-chloro-2-methylphenyl)pyrimidin-4-yl]amino}ethyl)phenyl]-3-(propan-2-yl)urea] | < 500 nM | < 200 nM |
| C=CCNC(=O)Nc1ccc(CCNc2cc(-c3cccc(Cl)c3C)nc(N)n2)cc1 [Example 114, 1-allyl-3-[4-[2-[[2-amino-6-(3-chloro-2-methyl-phenyl)pyrimidin-4-yl]amino]ethyl]phenyl]urea] | < 500 nM | < 200 nM |
| Cc1cccc(-c2cc(NCCNc3ccc(N)cc3F)nc(N)n2)c1C [Example 128, 1-N-(2-{[2-amino-6-(2,3-dimethylphenyl)pyrimidin-4-yl]amino}ethyl)-2-fluorobenzene-1,4-diamine] | < 500 nM | < 200 nM |
| Cc1nc2ccc(NCCNc3cc(-c4cccc(C)c4C)nc(N)n3)cc2s1 [Example 36, 6-(2,3-dimethylphenyl)-4-N-{2-[(2-methyl-1,3-benzothiazol-6-yl)amino]ethyl}pyrimidine-2,4-diamine] | < 500 nM | < 200 nM |
| Cc1c(Cl)cccc1-c1cc(NCCNc2ccc3c(c2)N(C)C(=O)CO3)nc(N)n1 [Example 92, 6-[2-[[2-amino-6-(3-chloro-2-methyl-phenyl)pyrimidin-4-yl]amino]ethylamino]-4-methyl-1,4-benzoxazin-3-one] | < 500 nM | < 200 nM |
| Cc1cccc(-c2cc(NCCc3ccc(C(N)=O)cc3)nc(N)n2)c1C [Example 44, 4-(2-{[2-amino-6-(2,3-dimethylphenyl)pyrimidin-4-yl]amino}ethyl)benzamide] | < 500 nM | < 200 nM |
| Cc1c(Cl)cccc1-c1cc(NCCc2cccc(NC(=O)OCC(C)C)c2)nc(N)n1 [Example 154, isobutyl N-[3-[2-[[2-amino-6-(3-chloro-2-methyl-phenyl)pyrimidin-4-yl]amino]ethyl]phenyl]carbamate] | < 500 nM | < 200 nM |
| Nc1nc(NCCc2ccc(S(N)(=O)=O)cc2)cc(-c2cc(Cl)cc(Cl)c2Cl)n1 [Example 97, 4-[2-[[2-amino-6-(2,3,5-trichlorophenyl)pyrimidin-4-yl]amino]ethyl]benzenesulfonamide] | < 500 nM | < 200 nM |
| Cc1c(Cl)cccc1-c1cc(NCCc2ccc3c(c2)NC(=O)CO3)nc(N)n1 [Example 48, 6-(2-{[2-amino-6-(3-chloro-2-methylphenyl)pyrimidin-4-yl]amino}ethyl)-3,4-dihydro-2H-1,4-benzoxazin-3-one] | < 500 nM | < 200 nM |
| Cc1c(Cl)cccc1-c1cc(NCCc2ccc(NC(=O)OC(C)(C)C)cc2)nc(N)n1 [Example 62, tert-butyl N-[4-(2-{[2-amino-6-(3-chloro-2-methylphenyl)pyrimidin-4-yl]amino}ethyl)phenyl]carbamate] | < 500 nM | < 200 nM |
| Cc1cc(Cl)cc(-c2cc(NCCc3ccc(C(N)=O)cc3)nc(N)n2)c1F [Example 79, 4-(2-{[2-amino-6-(5-chloro-2-fluoro-3-methylphenyl)pyrimidin-4-yl]amino}ethyl)benzamide] | < 500 nM | < 200 nM |
| Cc1c(Cl)cccc1-c1cc(NCC(C)(C)CNc2ccc(S(N)(=O)=O)cc2)nc(N)n1 [Example 164, 4-[[3-[[2-amino-6-(3-chloro-2-methyl-phenyl)pyrimidin-4-yl]amino]-2,2-dimethyl-propyl]amino]benzenesulfonamide] | < 500 nM | < 200 nM |
| COC(=O)c1cnc(NCCNc2cc(-c3cccc(C)c3C)nc(N)n2)cn1 [Example 49, methyl 5-[(2-{[2-amino-6-(2,3-dimethylphenyl)pyrimidin-4-yl]amino}ethyl)amino]pyrazine-2-carboxylate] | < 500 nM | < 200 nM |
| CC1(C)Nc2cc(NCCNc3cc(-c4cccc(Cl)c4Cl)nc(N)n3)ccc2OC1=O [Example 104, 6-[2-[[2-amino-6-(2,3-dichlorophenyl)pyrimidin-4-yl]amino]ethylamino]-3,3-dimethyl-4H-1,4-benzoxazin-2-one] | < 500 nM | < 200 nM |
| Cc1nc2ccc(NCCNc3cc(-c4cccc(Cl)c4Cl)nc(N)n3)cc2s1 [Example 39, 6-(2,3-dichlorophenyl)-4-N-{2-[(2-methyl-1,3-benzothiazol-6-yl)amino]ethyl}pyrimidine-2,4-diamine] | < 500 nM | < 200 nM |
| CCOC(=O)c1ccc(NCCNc2cc(-c3cccc(C)c3C)nc(N)n2)nc1 [Example 28, ethyl 6-[(2-{[2-amino-6-(2,3-dimethylphenyl)pyrimidin-4-yl]amino}ethyl)amino]pyridine-3-carboxylate] | < 500 nM | < 200 nM |
| Cc1c(Cl)cccc1-c1cc(NCCc2ccc(NS(=O)(=O)CC(F)(F)F)cc2)nc(N)n1 [Example 60, N-[4-(2-{[2-amino-6-(3-chloro-2-methylphenyl)pyrimidin-4-yl]amino}ethyl)phenyl]-2,2,2-trifluoroethane-1-sulfonamide] | < 500 nM | < 200 nM |
| Cc1c(Cl)cccc1-c1cc(NCCc2cccc(NC(=O)OC(C)(C)C)c2)nc(N)n1 [Example 83, tert-butyl N-[3-(2-{[2-amino-6-(3-chloro-2-methylphenyl)pyrimidin-4-yl]amino}ethyl)phenyl]carbamate] | < 500 nM | < 200 nM |
| Cc1cccc(-c2cc(NCCCNc3ccc(S(N)(=O)=O)cn3)nc(N)n2)c1C [Example 2, 6-[(3-{[2-amino-6-(2,3-dimethylphenyl)pyrimidin-4-yl]amino}propyl)amino]pyridine-3-sulfonamide] | < 500 nM | < 200 nM |
| Nc1nc(NCCc2cccc(S(N)(=O)=O)c2)cc(-c2cccc(Cl)c2Cl)n1 [Example 54, 3-(2-{[2-amino-6-(2,3-dichlorophenyl)pyrimidin-4-yl]amino}ethyl)benzene-1-sulfonamide] | < 500 nM | < 200 nM |
| Cc1nc2ccc(NCCCNc3cc(-c4cccc(Cl)c4C)nc(N)n3)cc2s1 [Example 145, 6-(3-chloro-2-methyl-phenyl)-N4-[3-[(2-methyl-1,3-benzothiazol-6-yl)amino]propyl]pyrimidine-2,4-diamine] | < 500 nM | < 200 nM |

The next lines start with the values.

| IC50 (cancer cell) | IC50 (MTH1) | SMILES |
| --- | --- | --- |
| < 500 nM | < 200 nM | C#CCN(C)C(=O)c1ccc(CCNc2cc(-c3cccc(Cl)c3C)nc(N)n2)cc1 [Example 211, 4-(2-{[2-amino-6-(3-chloro-2-methylphenyl)pyrimidin-4-yl]amino}ethyl)-N-methyl-N-(prop-2-yn-1-yl)benzamide] |
| < 500 nM | < 200 nM | Cc1c(Cl)cccc1-c1cc(NCCc2ccc(C(=O)OC(C)C)cc2)nc(N)n1 [Example 178, Isopropyl 4-[2-[[2-amino-6-(3-chloro-2-methyl-phenyl)pyrimidin-4-yl]amino]ethyl]benzoate] |
| < 500 nM | < 200 nM | Cc1c(Cl)cccc1-c1cc(NCCSc2ccc(S(N)(=O)=O)cn2)nc(N)n1 [Example 180, 6-[2-[[2-amino-6-(3-chloro-2-methyl-phenyl)pyrimidin-4-yl]amino]ethylsulfanyl]pyridine-3-sulfonamide] |
| < 500 nM | < 200 nM | Cc1c(Cl)cccc1-c1cc(NCCNc2ccc(S(C)(=O)=O)nc2)nc(N)n1 [Example 188, 6-(3-chloro-2-methyl-phenyl)-N4-[2-[(6-methylsulfonyl-3-pyridyl)amino]ethyl]pyrimidine-2,4-diamine] |
| < 500 nM | < 200 nM | Cc1c(Cl)cccc1-c1cc(NCCOc2ccc(S(C)(=O)=O)cn2)nc(N)n1 [Example 214, 6-(3-Chloro-2-methylphenyl)-N4-(2-(5-(methylsulfonyl)pyridin-2-yloxy)ethyl)pyrimidine-2,4-diamine] |
| < 500 nM | < 200 nM | Cc1c(Cl)cccc1-c1cc(NCCc2ccc(C(=O)OCCS(C)(=O)=O)cc2)nc(N)n1 [Example 186, 2-methylsulfonylethyl 4-[2-[[2-amino-6-(3-chloro-2-methyl-phenyl)pyrimidin-4-yl]amino]ethyl]benzoate] |
| < 500 nM | < 200 nM | Cc1c(Cl)cccc1-c1cc(NCCc2ccc(S(C)(=O)=O)c(F)c2)nc(N)n1 [Example 172, 6-(3-chloro-2-methyl-phenyl)-N4-[2-(3-fluoro-4-methylsulfonyl-phenyl)ethyl]pyrimidine-2,4-diamine] |
| < 500 nM | < 200 nM | COCCNS(=O)(=O)c1ccc(CCNc2cc(-c3cccc(Cl)c3C)nc(N)n2)cc1 [Example 208, 4-(2-{[2-amino-6-(3-chloro-2-methylphenyl)pyrimidin-4-yl]amino}ethyl)-N-(2-methoxyethyl)benzene-1-sulfonamide] |
| < 500 nM | < 200 nM | Cc1c(Cl)cccc1-c1cc(NCCc2ccc(C(=O)N3CCN(C)CC3)cc2)nc(N)n1 [Example 195, 6-(3-chloro-2-methylphenyl)-4-N-{2-[4-(4-methylpiperazine-1-carbonyl)phenyl]ethyl}pyrimidine-2,4-diamine] |
| < 500 nM | < 200 nM | Cc1c(Cl)cccc1-c1cc(NCCc2cccc(S(=O)(=O)C(C)C)c2)nc(N)n1 [Example 170] |
